Assays:
Assay type in all cases: cell-based
[1] = system: human lymphoma cell line RAMOS cells; experiment: Cell growth inhibition test using RAMOS cell, ATP assay (CellTiter-Glo); conditions: Homo sapiens, Ramos, 72 h, cultured 3 days, 50% growth inhibition concentration
Method in brief: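 RAMOS cells seeded at 4000 cells/well with compound and cultured 3 days at 37° C, 5% CO2; viability by CellTiter-Glo luminescence. Growth rate T/C % = 100×[(B−C)/(A−C)] using day-0 and final readings; GI50 interpolated from the two concentrations bracketing 50% growth.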

T24 = experiment: Cell growth inhibition test, T24; conditions: Homo sapiens, T-24, 72 h; T24, Bladder cancer, 3 days, CellTiter-Glo
Experimental: (§1) A cell growth inhibition test was carried out by treating a cultured cancer cell line with a test compound for a given period and then counting the number of viable cells by CellTiter-Glo Luminescent Cell Viability Assay (manufactured by Promega Corp.).
(§2) The following cells were inoculated to a 384-well plate containing the compound prepared in advance at predetermined concentrations. […]
(§3) The cells thus inoculated were cultured at 37° C. for 3 days under 5% CO2. […] Then, luminescence intensity was measured using a plate reader.
(§4) The number of viable cells and luminescence intensity have been confirmed to correlate with each other. Therefore, the rate of cell growth was calculated according to the following expression: Rate of cell growth (T/C %) of a test compound-supplemented well=100×[(B−C)/(A−C)] wherein A represents the luminescence intensity (final culture date) of a test compound-free well; B represents the luminescence intensity (final culture date) of a test compound-containing well; and C represents the luminescence intensity (day of cell inoculation) of a well at the start of contact of the cells with the test compound.
(§5) T/C % at the concentration of each of the serially diluted test compounds was determined. […]

SK-BR-3 = experiment: Cell growth inhibition test, SK-BR-3; conditions: Homo sapiens, 72 h; SK-BR-3, Breast cancer, 3 days, CellTiter-Glo
Experimental: as §1, §2, §3, §4, §5

BT-20 = experiment: Cell growth inhibition test, BT-20; conditions: Homo sapiens, 72 h; BT-20, Breast cancer, 3 days, CellTiter-Glo
Experimental: as §1, §2, §3, §4, §5

COLO 205 = experiment: Cell growth inhibition test, COLO 205; conditions: Homo sapiens, 72 h; COLO 205, Large intestine cancer, 3 days, CellTiter-Glo
Experimental: as §1, §2, §3, §4, §5

CCRF-CEM = experiment: Cell growth inhibition test, CCRF-CEM; conditions: Homo sapiens, 72 h, Leukemia, 3 days, CellTiter-Glo
Experimental: as §1, §2, §3, §4, §5

RPMI 8226 = experiment: Cell growth inhibition test, RPMI 8226; conditions: Homo sapiens, 72 h; RPMI 8226, Multiple myeloma, 3 days, CellTiter-Glo
Experimental: as §1, §2, §3, §4, §5

U266B1 = experiment: Cell growth inhibition test, U266B1; conditions: Homo sapiens, 72 h; U266B1, Multiple myeloma, 3 days, CellTiter-Glo
Experimental: as §1, §2, §3, §4, §5

COR-L23 = experiment: Cell growth inhibition test, COR-L23; conditions: Homo sapiens, 72 h; COR-L23, Lung cancer, 3 days, CellTiter-Glo
Experimental: as §1, §2, §3, §4, §5

NCI-H460 = experiment: Cell growth inhibition test, NCI-H460; conditions: Homo sapiens, 72 h; NCI-H460, Lung cancer, 3 days, CellTiter-Glo
Experimental: as §1, §2, §3, §4, §5

NCI-H146 = experiment: Cell growth inhibition test, NCI-H146; conditions: Homo sapiens, 72 h; NCI-H146, Lung cancer, 3 days, CellTiter-Glo
Experimental: as §1, §2, §3, §4, §5

BxPC-3 = experiment: Cell growth inhibition test, BxPC-3; conditions: Homo sapiens, 72 h; BxPC-3, Pancreatic cancer, 3 days, CellTiter-Glo
Experimental: as §1, §2, §3, §4, §5

A-431 = experiment: Cell growth inhibition test, A-431; conditions: Homo sapiens, 72 h; A-431, Skin cancer, 3 days, CellTiter-Glo
Experimental: as §1, §2, §3, §4, §5

A375 = experiment: Cell growth inhibition test, A375; conditions: Homo sapiens, A-375, 72 h; A375, Skin cancer, 3 days, CellTiter-Glo
Experimental: as §1, §2, §3, §4, §5

U2 OS = experiment: Cell growth inhibition test, U2 OS; conditions: Homo sapiens, U2OS, 72 h, Bone and soft tissue tumor, 3 days, CellTiter-Glo
Experimental: as §1, §2, §3, §4, §5

With CCOc1ccc(Cl)cc1C(=O)NCC(C)(C)CC(=O)Nc1c([C@H](C)CN(C)C)n(C)n(-c2ccccc2)c1=O [Example 68, 5-Chloro-N-[4-({5-[(1R)-2-(dimethylamino)-1-methylethyl]-1-methyl-3-oxo-2-phenyl-2,3-dihydro-1H-pyrazol-4-yl}amino)-2,2-dimethyl-4-oxobutyl]-2-ethoxybenzamide] the GI50 [1] was 0.14 µM, the GI50 (T24) was 0.65 µM and the GI50 (SK-BR-3) was 0.52 µM. For the same compound, the GI50 (BT-20) was 0.59 µM, the GI50 (COLO 205) was 0.31 µM and the GI50 (CCRF-CEM) was 0.22 µM. The GI50 (RPMI 8226) was 0.14 µM, the GI50 (U266B1) was 0.22 µM and the GI50 (COR-L23) was 0.2 µM. The GI50 (NCI-H460) was 0.31 µM, the GI50 (NCI-H146) was 1.1 µM and the GI50 (BxPC-3) was 0.22 µM. It also gave a GI50 (A-431) of 0.21 µM, a GI50 (A375) of 0.28 µM and a GI50 (U2 OS) of 0.53 µM.
CCOc1ncc(Cl)cc1C(=O)NCC(C)(C)CC(=O)Nc1c([C@H](C)CN(C)C)n(C)n(-c2ccccc2)c1=O [Example 73, 5-Chloro-N-[4-({5-[(1R)-2-(dimethylamino)-1-methylethyl]-1-methyl-3-oxo-2-phenyl-2,3-dihydro-1H-pyrazol-4-yl}amino)-2,2-dimethyl-4-oxobutyl]-2-ethoxypyridine-3-carboxamide] gave a GI50 [1] of 0.31 µM, a GI50 (T24) of 0.85 µM and a GI50 (SK-BR-3) of 1 µM. It also gave a GI50 (BT-20) of 1.3 µM, a GI50 (COLO 205) of 0.85 µM and a GI50 (CCRF-CEM) of 0.59 µM. The GI50 (RPMI 8226) was 0.18 µM, the GI50 (U266B1) was 0.62 µM and the GI50 (COR-L23) was 0.55 µM. It also gave a GI50 (NCI-H460) of 0.73 µM, a GI50 (NCI-H146) of 2.7 µM and a GI50 (BxPC-3) of 0.44 µM. It also gave a GI50 (A-431) of 0.54 µM, a GI50 (A375) of 0.56 µM and a GI50 (U2 OS) of 0.92 µM.
CCOc1cc(F)c(Cl)cc1C(=O)NCC(C)(C)CC(=O)Nc1c(COC)n(C)n(-c2ccccc2)c1=O [Example 113, 5-Chloro-2-ethoxy-4-fluoro-N-(4-{[5-(methoxymethyl)-1-methyl-3-oxo-2-phenyl-2,3-dihydro-1H-pyrazol-4-yl]amino}-2,2-dimethyl-4-oxobutyl)benzamide] gave a GI50 [1] of 0.13 µM, a GI50 (T24) of 0.49 µM and a GI50 (SK-BR-3) of 0.65 µM. It also gave a GI50 (BT-20) of 0.85 µM, a GI50 (COLO 205) of 0.72 µM and a GI50 (CCRF-CEM) of 0.53 µM. The GI50 (RPMI 8226) was 0.16 µM, the GI50 (U266B1) was 0.44 µM and the GI50 (COR-L23) was 0.42 µM. The GI50 (NCI-H460) was 0.55 µM, the GI50 (NCI-H146) was 2 µM and the GI50 (BxPC-3) was 0.37 µM. It also gave a GI50 (A-431) of 0.39 µM, a GI50 (A375) of 0.26 µM and a GI50 (U2 OS) of 0.64 µM.

From patent US20170107207A1, “AMINOPYRAZOLONE DERIVATIVE” (DAIICHI SANKYO COMPANY, LIMITED, priority 2014, published 2017)
